The results in this text go back to patent US11884647B2, “Compounds and methods for targeting pathogenic blood vessels” (THE REGENTS OF THE UNIVERSITY OF CALIFORNIA, priority 2019, dated 2024).

The subject of test [1] is tumor endothelial cells (CT26.CL25 colon cancer tumor). Briefly: Colon CT26 ex vivo model of tumor angiogenesis. The format is cell-based. Conditions: Mus musculus, CT26, 48 h, read-out: Cell death. A digest of the protocol: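 Explant pieces of CT26 tumor (about 0.075 mm^3) were embedded in Matrigel and grown in endothelial growth medium at 37 °C for about 7 days until endothelial outgrowth appeared, then treated. Cell death was read about 48 h after drug addition by fluorescein diacetate (live) and propidium iodide (dead) staining with red/green imaging.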

Test [2] relates to tumor endothelial cells (LL/2 lung cancer tumor). In words: Lung LL2 ex vivo model of tumor angiogenesis. It counts as cell-based, mouse. Conditions: for Cell death: Lung LL2 ex vivo, Conc. 40 μm, drug treatment two days; for cytotoxicity at 20 µM / cytotoxicity at 40 µM: Mus musculus, Endothelial cell, 48 h, read-out: Cell death. A digest of the protocol:
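Mouse LL2 tumor fragments (~0.5×0.5×0.3 mm) embedded in Matrigel and grown in endothelial growth medium at 37° C until endothelial outgrowth (about 4 days) before drug treatment. About 48 h after drug addition, stained 10 min with fluorescein diacetate/propidium iodide; live (green) and dead (red) cells imaged at 2× with fixed channel settings.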

Test [3] deals with choroidal endothelial cells. In words: Ex vivo model of choroidal angiogenesis (choroidal neovascularization). Conditions: 10 μM; treatment starts after 7 days of angiogenesis, lasts two days; live/dead staining. It counts as cell-based. How it is done:
FIG. 2A-E. Comparison of compound 369 with the current anti-angiogenic drug in an ex vivo model of choroidal angiogenesis. A. A schematic diagram of the timeframe of the experiment. […] Treatment lasts for two days before cell death and survival are analyzed. B. Control experiment without any drug treatment at day 7. The white circle in the middle delineates the piece of choroid/RPE that was embedded to initiate neovascularization. C. […] Eylea was added at 10 μM. […] The compound was added at 10 μM. In B-D, green cells are live cells and red cells are dead cells. E. Quantitation of the experiments described in B-D. The amount of new endothelial cells in the untreated control is defined as 100%.

On to `CCCCOc1ccc(S(=O)(=O)c2cnc3ccc(C(=O)NCCO)cc3c2N2CCC(N3CCCCC3)CC2)cc1` [compound 202, 4-([1,4′-bipiperidin]-1′-yl)-3-((4-butoxyphenyl)sulfonyl)-N-(2-hydroxyethyl)quinoline-6-carboxamide], for which, in test [1], the cytotoxicity at 40 µM came to 10%. This molecule had a Cell death in test [2] of 30%.
As for `CCCCOc1ccc(S(=O)(=O)c2cnc3ccc(SC)cc3c2N2CCCN(CCN3CCCCC3)CC2)cc1` [compound 206, 3-((4-butoxyphenyl)sulfonyl)-6-(methylthio)-4-(4-(2-(piperidin-1-yl)ethyl)-1,4-diazepan-1-yl)quinoline], the cytotoxicity at 40 µM in test [1] was determined as 100%. Also, in test [2], the cytotoxicity at 20 µM stood at 30%.
With `CCCCOc1ccc(S(=O)(=O)c2cnc3ccc([S+](C)[O-])cc3c2N2CCC(N3CCCC(O)C3)CC2)cc1` (stereo not drawn) [compound 208, 1′-(3-((4-butoxyphenyl)sulfonyl)-6-(methylsulfinyl)quinolin-4-yl)-[1,4′-bipiperidin]-3-ol], the cytotoxicity at 40 µM in test [1] came out at 20%; in test [2] it was 50%.
Consider `CCCCOc1ccc(S(=O)(=O)c2cnc3ccc([S+](C)[O-])cc3c2N2CCCN(CCN3CCCCC3)CC2)cc1` (stereo not drawn) [compound 209, 3-((4-butoxyphenyl)sulfonyl)-6-(methylsulfinyl)-4-(4-(2-(piperidin-1-yl)ethyl)-1,4-diazepan-1-yl)quinoline], for which the cytotoxicity at 40 µM in test [1] worked out at 90%; in test [2], 60%.
For `CCCCOc1ccc(S(=O)(=O)c2cnc3ccc([S+](C)[O-])cc3c2N2CCCN(CCN3CCCC3)CC2)cc1` (stereo not drawn) [compound 210, 3-((4-butoxyphenyl)sulfonyl)-6-(methylsulfinyl)-4-(4-(2-(pyrrolidin-1-yl)ethyl)-1,4-diazepan-1-yl)quinoline] the same measures were 70% and 50%.
For `CCCCOc1ccc(S(=O)(=O)c2cnc3ccc(C(=O)OCC)cc3c2N2CCC(N3CCCN(C)CC3)CC2)cc1` [compound 211, ethyl 3-((4-butoxyphenyl)sulfonyl)-4-(4-(4-methyl-1,4-diazepan-1-yl)piperidin-1-yl)quinoline-6-carboxylate] the same measures were 100% and 100%.
Turning to `CCCCOc1ccc(S(=O)(=O)c2cnc3ccc(C(=O)OCC)cc3c2N2CCC(N3CCOCC3)CC2)cc1` [compound 212, ethyl 3-((4-butoxyphenyl)sulfonyl)-4-(4-morpholinopiperidin-1-yl)quinoline-6-carboxylate], the cytotoxicity at 40 µM in test [1] stood at 10%; in test [2] it was 50%.
For `CCCCOc1ccc(S(=O)(=O)c2cnc3ccc(C(=O)OCC)cc3c2N2CCC(N3CCN(CCO)CC3)CC2)cc1` [compound 214, ethyl 3-((4-butoxyphenyl)sulfonyl)-4-(4-(4-(2-hydroxyethyl)piperazin-1-yl)piperidin-1-yl)quinoline-6-carboxylate] the same measures were 100% and 100%.
Regarding `CCCCOc1ccc(S(=O)(=O)c2cnc3ccc(C(=O)OCC)cc3c2N2CCC(N3CCC(c4ccccc4)CC3)CC2)cc1` [compound 215, ethyl 3-((4-butoxyphenyl)sulfonyl)-4-(4-phenyl-[1,4′-bipiperidin]-1′-yl)quinoline-6-carboxylate], the cytotoxicity at 40 µM in test [1] turned out to be 20%. This molecule also showed a Cell death in test [2] of 30%.
Turning to `CCCCCCCOc1ccc(S(=O)(=O)c2cnc3ccc(SC)cc3c2N2CCCN(C)CC2)cc1` [compound 218, 3-((4-(heptyloxy)phenyl)sulfonyl)-4-(4-methyl-1,4-diazepan-1-yl)-6-(methylthio)quinoline], the cytotoxicity at 40 µM worked out at 90% in test [1] and 100% in test [2].
For `CCCCCCCOc1ccc(S(=O)(=O)c2cnc3ccc(SC)cc3c2N2CCC(N3CCCCC3)CC2)cc1` [compound 219, 4-([1,4′-bipiperidin]-1′-yl)-3-((4-(heptyloxy)phenyl)sulfonyl)-6-(methylthio)quinoline], the cytotoxicity at 40 µM in test [1] amounted to 90%; in test [2], 60%.
As to `CCCCCCCOc1ccc(S(=O)(=O)c2cnc3ccc([S+](C)[O-])cc3c2N2CCCN(C)CC2)cc1` (stereo not drawn) [compound 220, 3-((4-(heptyloxy)phenyl)sulfonyl)-4-(4-methyl-1,4-diazepan-1-yl)-6-(methylsulfinyl)quinoline], the cytotoxicity at 40 µM in test [1] and in test [2] was 100% in each case.
Turning to `CCCCCCCOc1ccc(S(=O)(=O)c2cnc3ccc([S+](C)[O-])cc3c2N2CCC(N3CCCCC3)CC2)cc1` (stereo not drawn) [compound 221, 4-([1,4′-bipiperidin]-1′-yl)-3-((4-(heptyloxy)phenyl)sulfonyl)-6-(methylsulfinyl)quinoline], the cytotoxicity at 40 µM in test [1] and in test [2] was 100% in each case.
As for `CCCCOc1ccc(S(=O)(=O)c2cnc3ccc([S+](C)[O-])cc3c2N2CCC(N3CCC(O)(c4ccccc4)CC3)CC2)cc1` (stereo not drawn) [compound 238, 1′-(3-((4-butoxyphenyl)sulfonyl)-6-(methylsulfinyl)quinolin-4-yl)-4-phenyl-[1,4′-bipiperidin]-4-ol], the cytotoxicity at 10 µM in test [1] worked out at 10%. Moreover, in test [2], the cytotoxicity at 40 µM came to 100%.
On the same counts, the results for `CCCCOc1ccc(S(=O)(=O)c2cnc3ccc([S+](C)[O-])cc3c2N2CCC(N3CCCN(C)CC3)CC2)cc1` (stereo not drawn) [compound 241, 3-((4-butoxyphenyl)sulfonyl)-4-(4-(4-methyl-1,4-diazepan-1-yl)piperidin-1-yl)-6-(methylsulfinyl)quinoline] are 0% and 40%.
Turning to `CCCCCCCOc1ccc(S(=O)(=O)c2cnc3ccc([S+](C)[O-])cc3c2N2CCC(N3CCN(C)CC3)CC2)cc1` (stereo not drawn) [compound 253, 3-((4-(heptyloxy)phenyl)sulfonyl)-4-(4-(4-methylpiperazin-1-yl)piperidin-1-yl)-6-(methylsulfinyl)quinoline], the cytotoxicity at 10 µM in test [1] stood at 80%. For the same molecule, in test [2], the cytotoxicity at 20 µM turned out to be 100%.
On the same counts, the results for `CCCCCCCOc1ccc(S(=O)(=O)c2cnc3ccc([S+](C)[O-])cc3c2N2CCC(N3CCCC(O)C3)CC2)cc1` (stereo not drawn) [compound 254, 1′-(3-((4-(heptyloxy)phenyl)sulfonyl)-6-(methylsulfinyl)quinolin-4-yl)-[1,4′-bipiperidin]-3-ol] are 40% and 100%.
On the same counts, the results for `CCCCCCCOc1ccc(S(=O)(=O)c2cnc3ccc([S+](C)[O-])cc3c2N2CCCN(CCN3CCCCC3)CC2)cc1` (stereo not drawn) [compound 255, 3-((4-(heptyloxy)phenyl)sulfonyl)-6-(methylsulfinyl)-4-(4-(2-(piperidin-1-yl)ethyl)-1,4-diazepan-1-yl)quinoline] are 0% and 10%.
On the same counts, the results for `CCCCCCCOc1ccc(S(=O)(=O)c2cnc3ccc([S+](C)[O-])cc3c2N2CCC(N3CCCN(C)CC3)CC2)cc1` (stereo not drawn) [compound 256, 3-((4-(heptyloxy)phenyl)sulfonyl)-4-(4-(4-methyl-1,4-diazepan-1-yl)piperidin-1-yl)-6-(methylsulfinyl)quinoline] are 90% and 100%.
Turning to `CCCCCCCOc1ccc(S(=O)(=O)c2cnc3ccc([S+](C)[O-])cc3c2N2CCC(N3CCN(CCO)CC3)CC2)cc1` (stereo not drawn) [compound 257, 2-(4-(1-(3-((4-(heptyloxy)phenyl)sulfonyl)-6-(methylsulfinyl)quinolin-4-yl)piperidin-4-yl)piperazin-1-yl)ethan-1-ol], the cytotoxicity at 10 µM in test [1] stood at 100%. For the same molecule, the cytotoxicity at 20 µM in test [2] turned out to be 100%.
Take `CCCCCCCOc1ccc(S(=O)(=O)c2cnc3ccc([S+](C)[O-])cc3c2N2CCC(N3CCC(N4CCCCC4)CC3)CC2)cc1` (stereo not drawn) [compound 258, 4-([1,4′:1′,4″-terpiperidin]-1″-yl)-3-((4-(heptyloxy)phenyl)sulfonyl)-6-(methylsulfinyl)quinoline]: the cytotoxicity at 10 µM in test [1] was found to be 100%. In addition, the cytotoxicity at 20 µM in test [2] came to 100%.
With `CCCCCCCOc1ccc(S(=O)(=O)c2cnc3ccc([S+](C)[O-])cc3c2N2CCN(C)CC2)cc1` (stereo not drawn) [compound 259, 3-((4-(heptyloxy)phenyl)sulfonyl)-4-(4-methylpiperazin-1-yl)-6-(methylsulfinyl)quinoline], the cytotoxicity at 20 µM was 100% in test [1] and 95% in test [2].
“Eylea: "The most commonly used drug for choroidal neovascularization, Eylea, can inhibit choroidal endothelial cell growth (as expected of an antiangiogenesis drug)" [reference compound]”: the “effect on new endothelial cells in choroidal angiogenesis” value in test [3] was “can inhibit choroidal endothelial cell growth”.
